{"source": "patent US7939530B2", "about": "“Treatment of lymphoma using 10-propargyl-10-deazaaminopterin and gemcitabine” (Sloan-Kettering Institute for Cancer Research, priority 2004, dated 2011)", "key": {"[1]": {"test_system": "HT (Diffuse large B cell) cell line", "experiment": "Growth inhibition in vitro (XTT or Alamar blue)", "assay_type": "cell-based, human", "details": "5 day continuous drug exposure", "method": "A PDX preparation prepared in accordance with Example 1 and an MTX preparation were tested for cytotoxicity against a panel of five human lymphoma cell lines. Experiments were performed as described previously. (Sirotnak et al., Cancer Chemother. Pharmacol. 12: 18-25 (1984). In brief, 2.5 to 5×10^3 cells were plated per well in 96-well flat bottom plates. Drug was added in a 0.9% NaCl solution (pH 7.0) over a range of concentrations, and cells were continuously exposed to drug for 5 days. Colorimetric dye (XTT or Alamar blue) was added for an addition period of time (XTT dye, 6 hours, Alamar blue, 24 hours). Each plate was then read on an automated plate reader at 590 nm. The percentage of inhibition was calculated as growth of cells exposed to drug divided by growth of controls (cells incubated with media only). IC50 values were determined as the drug concentrations at which cell growth was inhibited 50% as compared to controls. Experiments were repeated as lest three times. Experiments were also conducted with continuous drug exposures lasting for 3 and 4 days with results similar to the 5 day results."}, "[2]": {"test_system": "SKI-DLCL-1 (Diffuse large B Cell) cell line", "experiment": "Growth inhibition in vitro (XTT or Alamar blue)", "assay_type": "cell-based, human", "method": "A PDX preparation prepared in accordance with Example 1 and an MTX preparation were tested for cytotoxicity against a panel of five human lymphoma cell lines. Experiments were performed as described previously. (Sirotnak et al., Cancer Chemother. […] Colorimetric dye (XTT or Alamar blue) was added for an addition period of time (XTT dye, 6 hours, Alamar blue, 24 hours). Each plate was then read on an automated plate reader at 590 nm. The percentage of inhibition was calculated as growth of cells exposed to drug divided by growth of controls (cells incubated with media only). […] Experiments were repeated as lest three times."}, "[3]": {"test_system": "SKI-DLBCL-1 xenografts", "experiment": "TUNEL immunohistochemical staining for apoptosis in xenografts", "assay_type": "in vivo, mice", "details": "day 21; four doses on days 0, 3, 7 and 10; MTX 40 mg/kg, PDX 60 mg/kg", "method": "Immunohistochemical staining for apoptosis as measured by terminal deoxynucleotide transferase-mediated nick end-labeling (TUNEL) was performed on SKI-DLBCL-1 xenografts from mice sacrificed at day 21 following initiation of antifolate therapy. Mice received four doses of saline, MTX (40 mg/kg) or PDX (60 mg/kg) on days 0, 3, 7 and 10."}, "[4]": {"test_system": "SKI-DLCL-1 cells", "experiment": "Induction of apoptosis (YO-PRO-1/propidium iodide flow cytometry)", "assay_type": "cell-based, human", "details": "all drugs 1 nM, total exposure 72 hours, sequential: first drug 24 hours prior to second", "method": "Ara-C, PDX and Gem in combined and scheduled exposures. In each case, the total exposure time was 72 hours. In sequential treatments, the first drug was administered 24 hours prior to the second drug.\nTo assess apoptosis occurring as a result of combination therapies, apoptosis was assessed using two well standardized techniques. In the first (YO-PRO), cell membrane permeability was determined by measuring fluorescence of treated and control cells. 2×10^7 SKI-DLBCL cells were treated with either MTX, Ara-C, Gem or PDX alone or combinations of drug given together or scheduled. All drugs were assayed at equimolar concentrations (i.e. 1 nM). The incubation conditions were modeled after the in vitro cytotoxicity experiments. Single agent drugs or combinations of all drugs studied without schedule considerations were incubated for 72 hours, while drugs that were studied in some schedule were introduced in a 24+48 incubation scheme (i.e. drug B added 24 hours following drug A, then incubated for an additional 48 hours for a total incubation time of 72 hours). Cells were then collected, washed twice and re-suspended at a concentration of 1×10^6/mL in DPBS. Membrane permeability was detected via the differential cellular permeability of the fluorescent dyes YO-PRO®-1 and propidium iodide by flow cytometry, as per the manufacturer's guidelines (Vybrant apoptosis kit #4, Molecular Probes, Eugene, Oreg.). In addition to monitoring apoptosis, cell cycle kinetic analyses were also performed on all treated cells based the propidium iodide binding. Apoptotic cells were noted to be permeable to the green fluorescent dye YO-PRO®-1 (em 530, FL-1), and impermeable to the red fluorescent dye propidium iodide (em 575, FL-3). Typically, […] cells allow the entrance of both dyes, whereas living cells are impermeable to both dyes."}, "[5]": {"test_system": "SKI-DLCL-1 lymphoma cells", "experiment": "Trypan Blue Exclusion cytotoxicity assay of single agents and combinations", "assay_type": "cell-based, human", "details": "MTX 10 nM, PDX 1 nM, Ara-C 40 nM, Gem 10 nM, control = 1", "excerpt": "As set forth in greater detail in the examples herein, combination therapy using PDX and gemcitabine has been tested in vitro and in in vivo model systems for efficacy against lymphoma. Table 1 sets forth data obtained in a cytotoxicity assay (Example 2) using SKI-DLCL-1 lymphoma cells. SKI-DLCL-1 is a diffuse large b cell lymphoma (DLBCL) cell line that is particularly resistant to PDX.\nIn Table 1, the additive effect is in each case the % of control for the single agents multiplied together. The expected additive effect for PDX+Gem is better than for MTX and ara-C, because the agents are individually better. What is observed for both MTX/AraC combinations and PDX/Gem combinations is that the actual result is better than the predicted additive result. The extent of this synergism is quantified in Table 1 as (actual-additive)/additive so that the amount of reduction that occurs through the use of the combination is expressed as a percentage of the expected additive benefit.\nTo evaluate cytotoxicity of combination of PDX and GEM, a Trypan Blue Exclusion Assay was performed by aliquoting 5×10^5 SKI-DLBCL cells into each well of a 24 well plate with a final volume of 1 milliliter. Each drug was added in duplicate to the plate wells as follows: alone (MTX 10 nM, PDX 1 nM, Ara-C 40 nM, or Gem 10 nM), PDX+Gem or MTX+Ara-C for 48 h (hours). For the scheduled administration of drug, PDX or MTX alone were dispensed in additional duplicate wells. After 24 hours Gem and Ara-C were added to these wells, respectively, and incubated for 48 hours. At the end of incubation, 20 l of each cell culture was added to 20 l of trypan blue, after which […] was added to a hemocytometer (Hausser Scientific, Horsham, Pa.), where viable cells were counted based upon the presence (dead cells) or exclusion (live cells) of dye."}, "[6]": {"details": "cited from earlier work"}, "[7]": {"test_system": "caspase 3 in SKI-DLCL-1 cells", "experiment": "Caspase 3 activation (EnzChek Caspase-3 Assay Kit #2, Z-DEVD-R110 cleavage)", "assay_type": "cell-based, human", "quoted_text": "To further evaluate the activity of PDX and Gem combinations, Caspase activity was tested by EnzChek® Caspase-3 Assay Kit #2 (Molecular Probes) based upon the fluorometric detection of caspase-dependent Z-DEVD-R110 cleavage (rhodamine 110 bis-[N-CBZ-L-aspartyl-L-glutamyl-L-valyl-L-aspartic acid amide], a non-fluorescent bisamide), which, via a two step process, first yields the monoamide product (weakly fluorescent) and then the fluorescent product R110 (rhodamine 110, strongly fluorescent). Detection was performed on a Fluoroskan Ascent FL fluorescent plate reader (Thermo Lab Systems, Helsinki, Finland) according to the manufacturer's guidelines."}, "[8]": {"test_system": "subcutaneous tumors of SKI", "experiment": "Preliminary combination xenograft experiment", "assay_type": "in vivo, irradiated NOD-SCID mice", "details": "60 mg/kg; regrowth by day 44 after initial response", "method": "Given the experience that SKI-DLCL-1 is the most PDX resistant line in the panel, it was selected for these in vivo synergy experiments. […] All animals were treated with the maximum tolerated dose (MTD) of each drug, save the combination studies."}}, "data": [{"smiles": "C#CCC(Cc1cnc2nc(N)nc(N)c2n1)c1ccc(C(=O)N[C@@H](CCC(=O)O)C(=O)O)cc1", "note": "(some centres unmarked) [PDX, 10-Propargyl-10-deazaminopterin]", "values": [{"measurement": "IC50", "setting": "[1]", "result": "2 ± 0.4", "unit": "nM"}, {"measurement": "IC50", "setting": "[2]; SKI-DLCL-1, 5 day continuous drug exposure", "result": "5.1 ± 0.1", "unit": "nM"}, {"measurement": "EC50 in SKI-DLCL-1 relative to other B-cell lymphoma cell lines", "setting": "[2]; roughly, fold greater", "result": "2 to 3", "unit": "fold"}, {"measurement": "apoptotic cells in tumor tissue (TUNEL)", "setting": "[3]", "result": "high level of apoptotic cells"}, {"measurement": "% change in apoptosis", "setting": "[4]", "result": 28.21, "unit": "%"}, {"measurement": "fraction of control", "setting": "[5]", "result": 0.84}, {"measurement": "maximum tolerated dose (MTD)", "setting": "[6]; intraperitoneal, twice weekly for two weeks", "result": 60, "unit": "mg/kg"}, {"measurement": "toxic deaths at the MTD", "setting": "[6]; nude mice", "result": "no toxic deaths"}, {"measurement": "Fluorescence at 485ex/527em", "setting": "[7]; 1 nM, control 134.3", "result": 265.5}, {"measurement": "Difference from control", "setting": "[7]; fluorescence at 485ex/527em", "result": 131.2}, {"measurement": "tumor volume as % of initial tumor volume", "setting": "[8]", "result": 739, "unit": "%"}]}]}
